In US20110250254A1, “ANTIMICROBIAL COMPOSITIONS AND USES” (priority 2008, published 2011):
Like-named read-outs stand apart in the source and are kept apart here.

Experiments:
Assay type in all cases: cell-based
V. harveyi [1] = test: Planktonic growth in Low Binding Plates, OD 600 nm; details: for V. harveyi planktonic bacteria reduction: 100 μM; for Effect on V. harveyi planktonic growth: in words
Description: (§1) Planktonic growth was determined in “Low Binding Plates” in which the bacteria form minimal amounts of biofilm The quantity is determined by optical density measurements at 600 nm.

V. harveyi [2] = test: Biofilm formation on peggs, Calgary method; details: for Effect on V. harveyi biofilm: in words
Description: (§2) Biofilm formation was measured in static cultures in wells of microtiter plates for S. epidermidis, or on “peggs” according to the Calgary method (The Calgary biofilm devices: New technology for rapid determination of antibiotic susceptibilities of bacterial biofilms. Ceri et al. J Clin Microbiol 1999:37:1771-1776) for V. harveyi. In both cases the safranin staining method was applied and optical density was measured at 530 nm for quantification of biofilm mass.

S. epidermidis [3] = test: Planktonic growth in Low Binding Plates, OD 600 nm
Description: as §1

S. epidermidis [4] = test: Biofilm formation in static cultures in wells of microtiter plates
Description: as §2

S. epidermidis [5] = test: Static biofilm model on coated glass vials; details: incubation time 5 h, coating on glass vial
Description: The materials of Example 3 were tested in a static biofilm model as follows.
Triplicate samples of a coating composition were applied to a glass vial in accordance with Table 2 set out below where each vial is given a number. Vials 1 to 12 are each loaded with 13 mg of the indicated material, followed by the addition of 1.0 mL dichloromethane. The dichloromethane was slowly evaporated under atmospheric pressure to leave a coating on the internal walls of the receptacles. Vials 13 to 18 were each loaded by adding 10 mg of the indicated material pre-dissolved in 10 mL dichloromethane. These vials were heated in an oven at 125° C. for 24 hours. To remove any residues of the dichloromethane solvent, all vials were dried at high vacuum (0.5 mmHg) for 2 hours at room temperature.
The biofilm was assessed as described in Example 2.
It is possible in the example of the copolymer of C and D that bacteria are killed in addition to the inhibition of biofilm formation. Similar results were obtained in a static biofilm model where S. epidermis bacteria were incubated over a time period of 5 hours.

marine bacteria [6] = test: Coated stainless steel, MPN viable counts of desorbed bacteria; details: 14 days at 20° C., median values vs no coating
Description: (§3) Biological testing of coated stainless steel substrates were performed in a static cultures of marine bacteria. The biofilm prevention efficiencies of the coatings were recorded as a) total enumeration of bacteria attached on the steel surfaces and b) most-probable number (MPN) viability testing of attached bacteria. The nature of the thiophenes (expecting to inhibit biofilm generation without being toxic to the bacteria) should account for inhibition of both total counts and viability counts when thiophene-coated surfaces were compared to non-treated controls.
(§4) Three samples of stainless steel substrates were prepared as described above, each of these in triplicate. […]
(§5) At the end of the experimental period (14 days) the steel surfaces were removed from the media and carefully washed in sterile and particle-free (filtered through […] sterile filters) seawater. […] Desorbed concentrations of bacteria were recorded by epifluorescence microscopy and by MPN-counts in MB medium.
(§6) For epifluorescence microscopy 10 ml desorbed samples were stained with 2 μg 3′5-diamino phenylindol (DAPI) and incubated for 5-10 minutes. The stained samples were filtered through 0.2 μm black polycarbonate filters and analysed in a fluorescence microscope at 1250× magnification. […] The plates were incubated at 20° C. for 5 days and positive growth recorded as turbidity in the wells. […]

marine bacteria [7] = test: Coated stainless steel, total counts of desorbed bacteria by epifluorescence microscopy; details: 14 days at 20° C., median values vs no coating
Description: as §3, §4, §5, §6

S. epidermidis [8] = test: Shaking biofilm model (200 rpm), safranine staining; details: Staphylococcus epidermidis, read-out: Shaking biofilm model % Remaining
Description: (§7) According to the static biofilm model, a given thiophenone 200 μmol/L was dissolved in 500 μl absolute ethanol and applied to wells of a standard 24 well microtiter plate. The ethanol was evaporated from the wells in a laminar air sterile work bench at room temperature so as to leave a coating of the thiophenone in the well. A sample of bacteria was then added to the well and incubated for a given period of time. After incubation, the percentage of bacteria remaining was assessed by safranine staining of the biofilm. Bound safranine was released by acetic acid and optical density was measured in Synergy HT Multi-Detection Microplate Reader and compared to a control.
According to the shaking biofilm model, the microtiter plates were shaken (200 rpm) in a Minitron Incubator Shaker during biofilm formation.

S. epidermidis [9] = test: Static biofilm model, safranine staining; details: 6 h incubation, thiophenone 200 μmol/L coating
Description: as §7

[10] = S. epidermidis, 20 h incubation

With `O=C(O)CCC(=O)OCC1=C/C(=C/Br)SC1=O` the “V. harveyi planktonic bacteria reduction” value (V. harveyi [1]) was 18%, the “V. harveyi biofilm reduction” value (V. harveyi [2]; 5 μM) was 17% and the “V. harveyi biofilm reduction” value (V. harveyi [2]; 50 μM) was 70%. The “V. harveyi biofilm reduction” value (V. harveyi [2]; 100 μM) was 85%.
With `O=C1C=C/C(=C/I)S1` the “S. epidermis planktonic bacterial growth reduction” value (S. epidermidis [3]; 50 μM) was 50%, the “S. epidermis planktonic bacterial growth reduction” value (S. epidermidis [3]; 100 μM) was 63% and the “S. epidermis biofilm reduction” value (S. epidermidis [4]; 50 μM) was 50%. The “S. epidermis biofilm reduction” value (S. epidermidis [4]; 100 μM) was 64%, the “V. harveyi biofilm reduction” value (V. harveyi [2]; 5 μM) was 46% and the “V. harveyi biofilm reduction” value (V. harveyi [2]; 10 μM) was 80%. The “V. harveyi biofilm reduction” value (V. harveyi [2]; 15 μM) was 95%.
For `N#CS/C=C1/C=CC(=O)S1`, the “V. harveyi planktonic reduction” value (V. harveyi [1]; 25 μM) was 50%, the “S. epidermis planktonic growth reduction” value (S. epidermidis [3]; concentrations from 25 μM) was 70% and the “V. harveyi biofilm reduction” value (V. harveyi [2]; 25 μM) was 90%.
For `CCN(/C=C1/C=CC(=O)S1)CC`, the “Effect on V. harveyi planktonic growth” value (V. harveyi [1]) was “No effect” and the “Effect on V. harveyi biofilm” value (V. harveyi [2]) was “No effect”.
In the case of `O=C1C=C/C(=C/Oc2ccc([N+](=O)[O-])cc2)S1`, the “Effect on S. epidermis planktonic growth” value (S. epidermidis [3]; in words) is reported as “No effect” and the “Effect on S. epidermis biofilm” value (S. epidermidis [4]; in words) is reported as “No effect”.
For `COc1ccc(C2CSC(=O)C2)s1` (stereo not drawn), the “Effect on V. harveyi planktonic growth” value (V. harveyi [1]) was “No effect” and the “Effect on V. harveyi biofilm” value (V. harveyi [2]) was “No effect”.
With `O=C1S/C(=C\Br)C=C1c1cccs1` [(Z)-5-(bromomethylene)-3-(thiophen-2-yl)thiophen-2(5H)-one] the “V. harveyi planktonic bacteria reduction” value (V. harveyi [1]) was 30%.
With `CCO[Si](CCCNC(=O)OCc1ccccc1)(OCC)OCC` [Benzyl 3-(triethoxysilyl)propylcarbamate, reference compound] the “Static biofilm model % Remaining” value (S. epidermidis [5]) was 100%.
`CCO[Si](CCCNC(=O)OCC1=C/C(=C/Br)SC1=O)(OCC)OCC` [Compound F, (Z)-(5-bromomethylene-2-oxo-2,5-dihydrothiopen-3-yl)methyl 3-(triethoxysilyl)propylcarbamate] was tested, and the “Inhibition of viable attached bacteria” value (marine bacteria [6]) was > 99%, the “Inhibition of biofilm attachment (total counts)” value (marine bacteria [7]) was ~80% and the “Static biofilm model % Remaining” value (S. epidermidis [5]) was 45%.
`COc1ccc(CC2(CO)C=CC(=O)S2)s1` (stereo not drawn) [Thi401, 5-(hydroxymethyl)-5-((5-methoxythiophen-2-yl)methyl)thiophen-2(5H)-one] was tested, and the activity at 200 µM (S. epidermidis [8]; S. epidermidis, 6 h incubation) was 80%, the activity at 200 µM (S. epidermidis [8]; [10]) was 94% and the “Static biofilm model % Remaining” value (S. epidermidis [9]) was 51%.
`O=C1C=C/C(=C\Br)S1` [Thio102, (E)-5-(bromomethylene) thiophen-2(5H)-one] was tested, and the activity at 200 µM (S. epidermidis [8]; S. epidermidis, 6 h incubation) was 91%, the activity at 200 µM (S. epidermidis [8]; [10]) was 103% and the “Static biofilm model % Remaining” value (S. epidermidis [9]) was 95%.
`O=C1C=C/C(=C/Cl)S1` [Thio103, (Z)-5-(chloromethylene) thiophen-2(5H)-one] was tested, and the activity at 200 µM (S. epidermidis [8]; 6 h) was 92%, the activity at 200 µM (S. epidermidis [8]; 20 h) was 96% and the “Static biofilm model % Remaining” value (S. epidermidis [9]) was 32%.
With `CC(=O)O/C=C1/C=CC(=O)S1` [Thio104, (Z)-(5-oxothiophen-2(5H)-ylidene)methyl acetate] the activity at 200 µM (S. epidermidis [8]; 6 h) was 106%, the activity at 200 µM (S. epidermidis [8]; 20 h) was 103% and the “Static biofilm model % Remaining” value (S. epidermidis [9]) was 34%.
`O=C1S/C(=C\Br)C=C1Br` [Thio105, (Z)-3-bromo-5-(bromomethylene)thiophen-2(5H)-one] showed an activity at 200 µM (S. epidermidis [8]; S. epidermidis, 6 h incubation) of 20% and an activity at 200 µM (S. epidermidis [8]; [10]) of 18%.
For `O=C1C=CC(=C(Br)Br)S1` [Thio106, 5-(dibromomethylene)thiophen-2(5H)-one], the activity at 200 µM (S. epidermidis [8]; S. epidermidis, 6 h incubation) was 11% and the activity at 200 µM (S. epidermidis [8]; [10]) was 27%.
Work on `O=C1C=C/C(=C/C(Br)Br)S1` [Thio107, (Z)-5-(2,2-dibromoethylidene) thiophen-2(5H)-one] yielded an activity at 200 µM (S. epidermidis [8]; S. epidermidis, 6 h incubation) of 77% and an activity at 200 µM (S. epidermidis [8]; [10]) of 93%.
`O=C1SC(=C(Br)Br)C=C1Br` [Thio108, 3-bromo-5-(dibromomethylene)thiophen-2(5H)-one] showed an activity at 200 µM (S. epidermidis [8]; S. epidermidis, 6 h incubation) of 1% and an activity at 200 µM (S. epidermidis [8]; [10]) of 9%.
In the case of `O=C1C=C/C(=C/c2ccccc2)S1` [Thio109, (Z)-5-benzylidenethiophen-2(5H)-one], the activity at 200 µM (S. epidermidis [8]; S. epidermidis, 6 h incubation) is reported as 98% and the activity at 200 µM (S. epidermidis [8]; [10]) is reported as 107%.
`O=C1S/C(=C\c2ccccc2)C=C1Br` [Thio110, (Z)-5-benzylidene-3-bromothiophen-2(5H)-one] was tested, and the activity at 200 µM (S. epidermidis [8]; S. epidermidis, 6 h incubation) was 30% and the activity at 200 µM (S. epidermidis [8]; [10]) was 27%.
In the case of `O=C1C=C/C(=C(\Br)c2ccccc2)S1` [Thio111, (E)-5-(bromo(phenyl)methylene) thiophen-2-(5H)-one], the activity at 200 µM (S. epidermidis [8]; S. epidermidis, 6 h incubation) is reported as 63% and the activity at 200 µM (S. epidermidis [8]; [10]) is reported as 50%.
`O=C1C=C/C(=C(/Br)c2ccccc2)S1` [Thio112, (Z)-5-(bromo(phenyl)methylene) thiophen-2(5H)-one] was tested, and the activity at 200 µM (S. epidermidis [8]; S. epidermidis, 6 h incubation) was 63% and the activity at 200 µM (S. epidermidis [8]; [10]) was 59%.
For `COc1ccc(C=O)s1` [Thio201, 5-methoxythiophene-2-carbaldehyde], the activity at 200 µM (S. epidermidis [8]; S. epidermidis, 6 h incubation) was 81%, the activity at 200 µM (S. epidermidis [8]; [10]) was 101% and the “Static biofilm model % Remaining” value (S. epidermidis [9]) was 56%.
Molecule `COc1ccc(C=C(Br)Br)s1` [Thio202, 2-(2,2-dibromovinyl)-5-methoxythiophene] has an activity at 200 µM (S. epidermidis [8]; S. epidermidis, 6 h incubation) of 94% and an activity at 200 µM (S. epidermidis [8]; [10]) of 103%.
In the case of `O=C1C=C/C(=C/c2cccs2)S1` [Thio301, (Z)-5-(thiophen-2-ylmethylene) thiophen-2(5H)-one], the activity at 200 µM (S. epidermidis [8]; S. epidermidis, 6 h incubation) is reported as 80% and the activity at 200 µM (S. epidermidis [8]; [10]) is reported as 98%.
With `O=C1C=C/C(=C/c2ccc(Br)s2)S1` [Thio302, (Z)-5-((5-bromothiophen-2-yl)methylene)thiophen-2(5H)-one] the activity at 200 µM (S. epidermidis [8]; S. epidermidis, 6 h incubation) was 98% and the activity at 200 µM (S. epidermidis [8]; [10]) was 101%.
In the case of `O=Cc1ccc(/C=C2/C=CC(=O)S2)s1` [Thio303, (Z)-5-((5-oxothiophen-2(5H)-ylidene)methyl)thiophene-2-carbaldehyde], the activity at 200 µM (S. epidermidis [8]; S. epidermidis, 6 h incubation) is reported as 95% and the activity at 200 µM (S. epidermidis [8]; [10]) is reported as 91%.
`COc1ccc(/C=C2/C=CC(=O)S2)s1` [Thio304, (Z)-5-((5-methoxythiophen-2-yl)methylene)thiophen-2(5H)-one] gave an activity at 200 µM (S. epidermidis [8]; S. epidermidis, 6 h incubation) of 72% and an activity at 200 µM (S. epidermidis [8]; [10]) of 94%.
`COc1sc(/C=C2/C=CC(=O)S2)c(Br)c1Br` [Thio305, (Z)-5-((3,4-dibromo-5-methoxythiophen-2-yl)methylene)thiophen-2(5H)-one] showed an activity at 200 µM (S. epidermidis [8]; S. epidermidis, 6 h incubation) of 66% and an activity at 200 µM (S. epidermidis [8]; [10]) of 101%.
In the case of `O=C1C=C/C(=C/c2ccc(-c3cccs3)s2)S1` [Thio306, (Z)-5-(2,2′-bithiophen-5-ylmethylene) thiophen-2(5H)-one], the “Static biofilm model % Remaining” value (S. epidermidis [9]) is reported as 67%.
